{"source": "patent US7323620B2", "about": "“Activation of equine oocytes” (Idaho Research Foundation, Inc., priority 2002, dated 2008)", "key": {"Oocytes from mules": {"system": "Oocytes from mules", "assay": "Additional data in mules: calcium concentration in activation medium and peripheral media, pregnancies after nuclear transfer", "type": "in vivo, mule", "text": "The procedures of the above examples were repeated in order to compare results obtained with different concentrations of calcium in the activation medium and in peripheral media, that is media other than the activation medium. Oocytes from mules were placed into one of four groups as follows: In Groups 1 to 3, media was as described above in Examples 1 to 5, except for calcium concentration, which is as described below. In Group 4, media was HECM media.\nTissue Culture Medium (TCM)—199 with Earl's salts • 1.4 mM CaCl2 (1×) • 10% Fetal Bovine Serum (FBS) • 0.05 units FSH • 0.05 units LH • 100 units penicillin • 100 micrograms streptomycin Manipulation Medium:\nPB1 (Whittingham, D G, J. Reprod. Fert., 37(1):159-162 (1974) • Dulbecco's phosphate buffered saline • 1.4 mM CaCl2 (1×) • 0.5 mM MgCl2 • 0.33 mM Na-pyruvate • 5.56 mM Glucose • 3 mg/ml Bovine Serum Albumin (BSA)—fraction 5 • 100 units penicillin • 10 micrograms streptomycin Transfer Medium\nPB1 (as in Manipulation Medium) except 0.7 mM CaCl2 (1×)\n(§1) Holding/Activation/Culture Medium for Group 4 in Example 9 and in horses in Example 10 • HECM (Ball et al., Amer. J. Vet. Res., 54(7):1139-44 (1993) • Ham's F-12+Dulbecco's […] (DMEM)—(50:50, v:v) • 0.71 mM CaCl2 (1×) • 29 mM NaHCO3 • 5 micrograms/ml insulin • 5 micrograms/ml transferrin • 5 ng/ml Na-selenite • 10 ng/ml EGF • 50 IU penicillin • 50 micrograms streptomycin"}, "horse oocytes": {"system": "horse oocytes", "assay": "Data in horses: protocol of Group 4 of Example 9 repeated with horse oocytes", "type": "in vivo", "experimental": "The protocol of Group 4 of Example 9 was repeated with […] horse oocytes. Of these, pregnancy was detected at two weeks in 6 mares, […]. Of these 6, 3 pregnancies were detected at 30 days and 1 was detected at 45 days.\nas §1"}, "equine oocytes": {"system": "equine oocytes", "assay": "Nuclear transfer with activation of oocytes in calcium chloride/ionomycin activation medium, embryo transfer and pregnancy detection by transrectal ultrasonography (cloned mule embryos)", "type": "in vivo, mule (donor cells); recipient mare Equus caballus", "experimental": "A primary culture of fibroblast cells was established from a 45-day mule fetus recovered from a domestic horse mare using transcervical uterine lavage. Culture medium was Glasgow MEM BHK-21 supplemented with 10% FBS, 100 units/ml penicillin, and 100 μg/ml streptomycin. Incubation was performed at 38.5° C. in a humidified atmosphere of 5% CO2 in air. Prior to the nuclear transfer procedure, the fibroblast cells were serum “starved” for 5 to 10 days by placing them into medium with 0.5% FBS.\nMares that were used as oocyte donors and as cloned-embryo recipients were of mixed breeding, 3 to 12 years old, and weighed 300 to 500 kg. The reproductive tracts of the mares were monitored by transrectal palpation and ultrasonography to assess follicular activity, ovulation, and the presence and degree of endometrial edema.\nOocytes were collected by one of three methods.\n1. Recent (≦12 hours) post-ovulatory oocytes (n=12) were collected by surgically excising the oviduct ipsilateral to ovulation and then flushing the oviduct in a retrograde manner with modified DPBS.\n2. Pre-ovulatory oocytes (n=3) were collected by surgically excising ovaries containing a pre-ovulatory follicle (≧35 mm) approximately 30 hours after administration of 2500 IU hCG and then manually aspirating the follicle.\n3. Pre-ovulatory oocytes (n=180) were collected using transvaginal aspiration (TVA) of pre-ovulatory follicles approximately 24 hours after administration of 2500 IU hCG.\nOocytes collected post-ovulation were incubated for up to 6 hours in maturation medium (M-199) containing 10% FBS, 0.05 units/ml pFSH, 0.05 units/ml pLH, 10 units/ml penicillin and 10 μg/ml streptomycin. Oocytes collected pre-ovulation were incubated in maturation medium for approximately 12 hours.\nCumulus-free metaphase II oocytes and starved donor cells were placed in a manipulation drop of TL HEPES containing 7.5 μg of cytochalasin B. The first polar body and metaphase plate of the oocytes were drawn into a 25-28 ID enucleation pipette. The same pipette was used to aspirate a disaggregated donor cell nucleus and place it in the perivitelline space of an oocyte to obtain an NT couple. Fusion of NT couples was induced by a single 15 μsec, 2.2 kv/cm DC pulse in a 3.5 mm fusion chamber. Fusion medium was […] D-mannitol containing 0.5 mM HEPES and 0.05% fatty acid-free BSA. Fused NT couples were activated by placing them in an activation medium containing calcium chloride and ionomycin for 8 minutes. Three different concentrations of calcium chloride were used in the activation medium: 2 mM (n=133 oocytes), 6 mM (n=40 oocytes), and 20 mM (n=22 oocytes).\nImmediately following nuclear transfer and activation, the oocytes, hereafter referred to as embryos, were surgically transferred to the oviduct of a recipient mare (Equus caballus) that had ovulated within 24 hours prior to the transfer. One to nine embryos were transferred to each mare. Pregnancy examinations on the recipient mare were performed using transrectal ultrasonography beginning on Day 12 post-transfer."}, "[1]": {"conditions": "Group 4 (6x Ca activation, 3x peripheral media)"}, "[2]": {"conditions": "Group 4 protocol (6x Ca activation, 3x peripheral media), 59 horse oocytes"}, "[3]": {"conditions": "Group 4 protocol, of 6 two-week pregnancies"}, "[4]": {"conditions": "2 mM calcium in activation medium"}, "[5]": {"conditions": "6 mM calcium in activation medium"}, "[6]": {"conditions": "20 mM calcium in activation medium"}}, "data": [{"smiles": "[Ca+2].[Cl-].[Cl-]", "note": "[calcium chloride]", "values": [{"measurement": "Two-week pregnancies detectable at 30 days", "setting": "Oocytes from mules; Group 1 (1x Ca all media), of 2 two-week pregnancies", "result": "neither"}, {"measurement": "PREGNANCIES (2 weeks)", "setting": "Oocytes from mules; Group 1: 1x Ca (about 2 mM) all media", "result": "(1.7%)"}, {"measurement": "PREGNANCIES (2 weeks), number", "setting": "Oocytes from mules; Group 1: 1x Ca (about 2 mM) all media, 115 oocytes", "result": 2}, {"measurement": "Two-week pregnancies detectable at 30 days", "setting": "Oocytes from mules; Group 2 (3x Ca activation medium), of 3 two-week pregnancies", "result": 2}, {"measurement": "PREGNANCIES (2 weeks)", "setting": "Oocytes from mules; Group 2: 3x Ca (about 6 mM) in activation media, 1x Ca all other media", "result": "(7.5%)"}, {"measurement": "PREGNANCIES (2 weeks), number", "setting": "Oocytes from mules; Group 2: 3x Ca (about 6 mM) in activation media, 1x Ca all other media, 40 oocytes", "result": 3}, {"measurement": "PREGNANCIES (2 weeks)", "setting": "Oocytes from mules; Group 3: 10x Ca (about 20 mM) in activation media, 1x Ca all other media", "result": "(9.09%)"}, {"measurement": "PREGNANCIES (2 weeks), number", "setting": "Oocytes from mules; Group 3: 10x Ca (about 20 mM) in activation media, 1x Ca all other media, 22 oocytes", "result": 2}, {"measurement": "Pregnancies detectable at 45 days", "setting": "Oocytes from mules; [1]", "result": "Five"}, {"measurement": "Pregnancies detectable at 120 days", "setting": "Oocytes from mules; [1]", "result": 3}, {"measurement": "Two-week pregnancies detectable at 30 days", "setting": "Oocytes from mules; Group 4 (6x Ca activation, 3x peripheral media), of 12 two-week pregnancies", "result": 9}, {"measurement": "PREGNANCIES (2 weeks)", "setting": "Oocytes from mules; Group 4: 6x Ca (about 12 mM) in activation media, 3x Ca all other media, HECM media", "result": "(14.4%)"}, {"measurement": "PREGNANCIES (2 weeks), number", "setting": "Oocytes from mules; Group 4: 6x Ca (about 12 mM) in activation media, 3x Ca all other media, HECM media, 132 oocytes", "result": 19}, {"measurement": "Pregnancy detected at two weeks", "setting": "horse oocytes; [2]", "result": 4.4, "unit": "%"}, {"measurement": "Pregnancy detected at two weeks, number of mares", "setting": "horse oocytes; [2]", "result": 6}, {"measurement": "Pregnancies detected at 30 days", "setting": "horse oocytes; [3]", "result": 3}, {"measurement": "Pregnancies detected at 45 days", "setting": "horse oocytes; [3]", "result": 1}, {"measurement": "Pregnancy Rate", "setting": "equine oocytes; [4]", "result": "(1.5%)"}, {"measurement": "Pregnancy Rate (pregnancies/oocytes)", "setting": "equine oocytes; [4]", "result": "2/133"}, {"measurement": "Pregnancy Rate", "setting": "equine oocytes; [5]", "result": "(7.5%)"}, {"measurement": "Pregnancy Rate (pregnancies/oocytes)", "setting": "equine oocytes; [5]", "result": "3/40"}, {"measurement": "Ultrasonography of cloned mule conceptus", "setting": "equine oocytes; 6 mM calcium in activation medium, Day 32 of gestation", "result": "an embryonic heart was evident"}, {"measurement": "Pregnancy Rate", "setting": "equine oocytes; [6]", "result": "(9.1%)"}, {"measurement": "Pregnancy Rate (pregnancies/oocytes)", "setting": "equine oocytes; [6]", "result": "2/22"}, {"measurement": "Pregnancies, higher versus lower calcium", "setting": "equine oocytes; 6 and 20 mM combined compared to 2 mM in activation medium, P<0.05", "result": "more pregnancies"}]}]}
